Legend:
[1] = test system: Pmm-2 F119L homozygous animals; experiment: Chemical stressor exposure of Pmm-2 mutant worms in liquid culture; type: in vivo, nematode (worms); conditions: increasing concentrations
Text: Because an underlying defect in glycosylation may be manifested when subjected to external chemical stressors, Pmm-2 F119L homozygous animals were subjected to Tunicamycin and Bortezomib drug exposures. Tunicamycin is an inhibitor of N-linked glycosylation and Bortezomib (Bzb) is an irreversible inhibitor of the proteasome. It was contemplated that either or both drugs would affect the Pmm-2 mutants differently compared to wild type (“WT”).

[2] = test system: SEC53 variant (pmm2 mutant) yeast; experiment: Yeast growth rescue of SEC53 variant strains (validation of drug screen hits); type: cell-based; conditions: for growth rescue/improvement: maximum dose/effect
Experimental: All strains used herein are in S288c background. Strains were grown in Synthetic Complete (“SC”) or SC drop out media (Sunrise)+2% dextrose at 30° C. unless otherwise noted. Standard genetic procedures of transformation and tetrad analysis were followed to construct strains. SEC53 rescue plasmid (pPL1) was generated by cloning the SEC53 promoter, open reading frame, and terminator sequences into the episomal pRS316 containing the URA3 selectable marker. SEC53 variants were generated by cloning the relevant promoter, GFP or SEC53 gene, and CYC1 terminator sequences into an integrating plasmid containing the LEU2 selectable marker and integrated at the SwaI restriction site into the HO locus. For PMM2 variants, the SEC53 ORF was replaced with a codon-optimized PMM2. Plasmids were generated by Next Interactions or GenScript. Strains were generated by Next Interactions or well-known techniques.
Cells from plates were resuspended in SC media to OD600=1.0, then serial diluted into 50 μL SC+FOA media in 384-well plates at 10^−1, 10^−2, and 10^−3. Plates were incubated at 30° C. and absorbance reading at […] were measured by a plate reader (Molecular Devices SpectraMax M3) at the indicated time points. Plates were vortexed briefly to resuspend cells prior to plate readings. 5-floroortic acid was purchased from US Biological and used at a concentration of 1 mg/L.
125 nL of compounds or DMSO were dispensed into 384-well plates using the Echo acoustic dispenser (LabCyte) to achieve a final concentration of 25 μM. 50 μL of 10^−2 dilution of an OD600=1.0 or 0.5 yeast cell suspensions were dispensed into the 384-well plates containing compounds or DMSO with a MultiFlo automated dispenser (Biotek). Plates were covered and incubated at 30° C. for 16-21 hours until OD600 reaches ˜0.8. Plates were vortexed briefly to resuspend cells prior to reading.
MicroSource Spectrum compounds were reordered from MicroSource Discovery Systems and resuspended in DMSO. 5-125 nL compounds or DMSO were dispensed into 384-well plates and 50 μL of yeast cell suspensions or media were dispensed by multichannel pipettes to achieve the desired concentration. Plates were covered and incubated at 30° C. for 16-23 hours until OD600 reaches ˜0.8. Plates were vortexed briefly to resuspend cells prior to plate readings.
pACT1-F126L, pSEC53-V238M, and pSEC53-F126L haploids and pACT1-F126L/pACT1-R148H, pSEC53-V238M/pSEC53-R148H, and pSEC53-F126L/pSEC53-R148H heterozygous diploids were advanced to a high-throughput drug screen. Screening was done in a 2,560 compound MicroSource Spectrum library collection consisting of FDA approved drugs, bioactive tool compounds, and natural products. Each strain was screened in duplicate and in 384-well plates, with each plate containing 32 wells of the negative control (no drugs) and 24 wells of the positive controls (wild type cells). […] Additionally, there is good correlation between replicates (correlation >0.4 for all panels). With a Z-score cutoff of 2.0, we initially identified six compounds that may be promising and their ability to rescue growth is conserved between the haploid and diploid strains.
These initial hits were further studied for validation. […] At the maximum dose tested, alpha-cyano-4-hydroxycinnamic acid (Compound 1) rescues the F126L allele by 17.7% in haploid and 24.5% in diploid cells.

PMM2 = PMM2 enzymatic assay on lysates of compound-treated fibroblasts; type: cell-based, human; conditions: for effect on PMM2 enzymatic activity: human fibroblasts GM20942 (F119L/R148H as printed), 10 and 15 μM, 24 and 48 hours; for PMM2 enzyme activity: above described cell models
Experimental: Cells (WT and PMM2 (GM20942-R141H/F119L) compound heterozygous fibroblasts) were seeded at 45 cells/μL (48 hours) and 60 cells/μL (24 hours) in 96 well plates. Compounds were added while seeding cells. The cells were incubated with the tested compounds for 24 and 48 hours (2 different plates, at 10 and 15 μM). Cells were washed twice with phosphate buffer solution. Cell extracts were prepared by adding 10 μL homogenization buffer (20 mM Hepes, 25 mM KCl, 1 mM dithiothreitol, 10 μg/mL each leupeptin and antipain) into each well. The plate was frozen at −80° C. and thawed (this step was repeated two times). Contents of the well were then transferred to the next well, frozen, and thawed. The previous two steps were repeated again to obtain 3× protein. The plate was centrifuged at 4000 rpm for 10 min. 1 μL of sample was taken for Qubit protein quantification, and assay buffer was added into these wells. The plate was incubated at 37° C., and readings were taken every 30 mins.
PMM2 enzymatic activities were assayed spectrophotometrically at 340 nm by the reduction of NADP+ to NADPH in a reaction mixture incubated at 30° C. for 60 mins in a 96-well plate. Cell lysates were added to 200 μL volume in the following reaction: 50 mM HEPES, pH 7.1, 5 mM MgCl2, 0.5 mM NADP+, 10 μg/mL yeast glucose-6-phosphate dehydrogenase, 20 μM glucose 1,6-bisphosphate, 200 μM mannose 1-phosphate, 10 μg/mL phosphoglucose isomerase, and […]. Glucose 1,6-bisphosphate was used as an activator of PMM2 activity. NADPH formation was calculated from absorbance at 340 nm using the Beer's Law (absorbance=εLc).
A PMM2 enzymatic assay was performed to determine whether the expression level of the variants correlate with the enzymatic activity in the cell. To do this, phosphomannose mutase (PMM) activity was assayed by measuring the reduction of NADP+ to NADPH spectrophotometrically at 340 nm with a plate reader according to methods known in the art. This is achieved by a series of four reactions shown in Scheme 1.
Mannose-1-phosphate and NADP are provided as substrates for the reactions along with phosphomannose isomerase, phosphoglucose isomerase, glucose-6-phosphoate dehydrogenase, and PMM2 from the protein lysate. Additionally, glucose 1,6-bisphosphate is used as an activator of PMM2 activity.
To determine whether these compounds rescue growth by increasing PMM2 enzymatic activity, human fibroblast cells (GM20942) containing the F119L/R148H heterozygous mutations and wild type fibroblast cells were treated with each compound. The cell lysates were subjected to the PMM2 enzymatic reaction.

[3] = pACT1-F126L/R148H heterozygous diploid cells

Question: Which “growth of Pmm-2 mutants compared to wild type under drug exposure” value [1] does the source give for `CC(C)C[C@H](NC(=O)[C@H](Cc1ccccc1)NC(=O)c1cnccn1)B(O)O` [Bzb, Bortezomib] here?
Answer: delayed growth

Question: With `N#C/C(=C\c1ccc(O)cc1)C(=O)O` [Compound 1, α-cyano-4-hydroxycinnamic acid] as the compound, how does the “rescue of growth of SEC53 alleles” value ([2]; haploid and heterozygous diploid cells, dose response) read?
Answer: consistent and dose-dependent rescues

Question: And the growth rescue/improvement ([2]; pACT1-F126L haploid cells)?
Answer: 17.7%

Question: And the growth rescue/improvement [2, 3]?
Answer: 24.5%

Question: What about the “effect on PMM2 enzymatic activity” value (PMM2) of the same compound?
Answer: rescues the enzymatic activity

Question: For `CNc1ccccc1C(=O)N1CCc2c([nH]c3ccccc23)C1=O` [rhetsinine, Rhetsinine], which PMM2 enzyme activity (PMM2) is on record?
Answer: increase PMM2 enzyme activity

Question: With `Cc1ccc(C(=O)Nc2ccc(S(=O)(=O)O)c3cc(S(=O)(=O)O)cc(S(=O)(=O)O)c23)cc1NC(=O)c1cccc(NC(=O)Nc2cccc(C(=O)Nc3cc(C(=O)Nc4ccc(S(=O)(=O)O)c5cc(S(=O)(=O)O)cc(S(=O)(=O)O)c45)ccc3C)c2)c1` [suramin hexasodium] as the compound, how does the growth rescue/improvement ([2]; pACT1-F126L haploid cells) read?
Answer: 6.7%

Question: And the growth rescue/improvement [2, 3]?
Answer: 22.6%

Question: And the growth improvement ([2]; pSEC53-F126L haploid cells)?
Answer: 24.5%

Question: What about the growth improvement ([2]; pSEC53-F126L/R148H heterozygous diploid cells) of the same compound?
Answer: 47.4%

Question: And the growth improvement ([2]; pSEC53-V238M haploid cells)?
Answer: 16.1%

Question: What about the growth improvement ([2]; pSEC53-V238M/R148H heterozygous diploid cells) of the same compound?
Answer: 38.9%

Question: And the “effect on PMM2 enzymatic activity” value (PMM2)?
Answer: no discernible effect

Question: What does the source list for Epalrestat [reference compound]?
Answer: rescue of yeast growth defect ([2]; above described cell models): rescued yeast growth defect; PMM2 enzyme activity (PMM2): increase PMM2 enzyme activity

Question: With Tunicamycin as the compound, how does the “growth of Pmm-2 mutants compared to wild type under drug exposure” value [1] read?
Answer: no major differences in growth
